Experiments:
[1] = Solubility evaluation, visual assessment in caustic, calcium chloride and cold water; type: physicochemical
Excerpt: The final concentrations are: 0.1 wt % for surfactant, 10 wt % for NaOH.
The final concentrations are: 0.1 wt % for surfactant, 1 M for CaCl2.
, C12, and C14 sulfonate compositions of the invention, as produced in Examples 5, 7, and 8, in 10% sodium hydroxide, 1M calcium chloride, […] 2A1 are shown in Table 2 below, and indicate that these new materials have desirable characteristics.

Desmondesmus subspicatus = assay: Fresh water algal growth inhibition test (OECD 201); type: cell-based; conditions: growth rate, 0-3; read-out: Fresh Water algal growth inhibition test with Desmondesmus subspicatus ErC50/0-3
Excerpt: The study procedures and test methods are based on the recommendations of the following guidelines: Organization for Economic Cooperation and Development (OECD): OECD Guidelines for the Testing of Chemicals, “Freshwater Alga and Cyanobacteria, Growth Inhibition Test”, Procedure 201, adopted 23 Mar. 2006; European Economic Community (EEC): Commission directive 92/69/EEC of 31 Jul. 1992, Methods for the determination of ecotoxicity, C.3., “Algal Inhibition Test”. Data from the aquatic toxicity tests of the isolated and purified C12 mono and disulfonates from Example 11 is shown in Table 3.

Daphna magna = assay: 48-hour acute toxicity to Daphnia; type: in vivo
Excerpt: The study procedures and test methods are based on the recommendations of the following guidelines:
Data from the aquatic toxicity tests of the isolated and purified C12 mono and disulfonates from Example 11 is shown in Table 3.

Compound: linear alkylbenzene sulfonate [LAS]
- Visual assessment, 0.1 wt % surfactant in 1M CaCl2 ([1]; 0.1 wt % surfactant, 1 M CaCl2): cloudy
- Visual assessment, 0.1 wt % surfactant in 10% NaOH ([1]; 0.1 wt % surfactant, 10 wt % NaOH): cloudy
- Visual assessment, 1 wt % surfactant at 7° C. ([1]; 1 wt % surfactant, 7° C.): cloudy

Compound: CCCCCCCCCCCCOC(CS(=O)(=O)[O-])CS(=O)(=O)[O-].[Na+].[Na+] [sodium 2-(dodecanyloxy)propane-1,3-disulfonate]
- EC50 (Desmondesmus subspicatus): > 100 µg/mL
- EC50 (Daphna magna): > 100 µg/mL
